From US4462819A, “Urease inhibited urea based fertilizer compositions containing organo boron acid compounds” (Allied Corporation, priority 1983, dated 1984) come the findings set out here.

The test system of assay [1] is urease. Put plainly: Evaluation of urease inhibiting activity in soil, Test B (test compound incubated in soil 3 days before urea was added). It counts as biochemical. More on the design: key: A=excellent inhibition; B=partial inhibition; C=no inhibition. The settings on record: 800 μg test compound incubated in 20 g soil (Cazenovia sandy loam pH 7.2) for 3 days before urea was added; analysis 3 days after urea addition; relative to control without test compound.

For assay [2], the system named is urease. Put plainly: Evaluation of urease inhibiting activity in soil, Test A (test compound and urea applied together). It counts as biochemical. Further details: key: A=excellent inhibition; B=partial inhibition; C=no inhibition. To be noted: 800 μg test compound and 42.8 mg urea in 20 g air-dry soil (Cazenovia sandy loam pH 7.2), 25° C., 3 days; remaining urea, relative to control without test compound. The method, then:
Certain selected organo boron acid compounds were evaluated for urease inhibiting activity. The tests were run in a New York soil (Cazenovia sandy loam pH 7.2). Test A evaluations (run in triplicate) consisted of applying 800 μg of test compound in 5 mL water and 42.8 mg urea in 1 mL water to 20 g air-dry soil in a glass bottle. The bottle was capped with perforated aluminum foil and incubated at 25° C. for 3 days prior to extraction with a 100 mL 2M KCL solution containing 0.5 mg phenylmercuric acetate. The extracts were then analyzed for remaining urea using an autoanalyzer.

As for `Nc1ccccc1B(O)O` [X, 2-Aminobenzeneboronic Acid], in the assay on urease [1], the “% INHIBITION (TEST B)” value is listed as “A”. Also, the “% INHIBITION (TEST A)” value with urease [2] is on record as “C”.
In the same order, the values of `Nc1ccc(B(O)O)cc1` [XII, 4-Aminobenzeneboronic Acid] are “A” and “B”.
The matching figures for `Cl.ONc1ccccc1B(O)O` [XIII, 2-Hydroxylaminobenzeneboronic Acid Hydrochloride]: “A” and “C”.
In the same order, the values of `Cl.ONc1cccc(B(O)O)c1` [XIV, 3-Hydroxylaminobenzeneboronic Acid Hydrochloride] are “B” and “B”.
As to `OB(O)c1cccc(O)c1` [XIX, 3-Hydroxybenzeneboronic Acid], in the assay on urease [1], the “% INHIBITION (TEST B)” value is “A”. Further, the “% INHIBITION (TEST A)” value in the assay with urease [2] is recorded as “B”.
In the same order, the values of `Cl.ONc1ccc(B(O)O)cc1` [XV, 4-Hydroxylaminobenzeneboronic Acid Hydrochloride] are “A” and “A”.
Turning to `NC(=O)Nc1cccc(B(O)O)c1` [XVI, 3-Ureidophenylboric Acid], the “% INHIBITION (TEST B)” value with urease [1] is reported as “B”. For the same molecule, in the assay with urease [2], the “% INHIBITION (TEST A)” value is recorded as “C”.
In the same order, the values of `OB1OCc2ccccc21` [XVII, Borphthalide] are “A” and “C”.
The matching figures for `OB1ON=Cc2ccccc21` [XVIII, 4-Hydroxy-4,3-boroxaroisoquinoline]: “B” and “B”.
